Test results taken from ChEMBL document CHEMBL3885861, “Open TG-GATES”.

Organism: Rattus norvegicus
Assay: Open TG-GATES - Regimen: Single
Format: toxicity, organism-based, Sprague-Dawley
Set-up: regimen Single, gender Male, age 6 weeks
Conditions: in vivo, po, 0 mg/kg, route gavage, dose level Control; for APTT / Bas / Eos / Fbg / Hb / Ht / Lym / MCHC / MCV / Mono / Neu / PT / Plat / RBC / Ret / WBC: tissue Blood; for KIDNEY_L / KIDNEY_R / KIDNEY_TOTAL: tissue Kidney; for LIVER: tissue Liver; for ALP / ALT / AST / BUN / CRE / Ca / Cl / DBIL / GLC / IP / K / LDH / Na / PL / RALB / TBIL / TC / TG / TP / gamma-GTP: tissue Plasma

**Q.** What does the source list for C1CCC(C(CC2CCCCN2)C2CCCCC2)CC1 (centres undefined) [PERHEXILINE]?
**A.** TERMINAL_BW (3 h): 206.4 g; APTT (3 h): 21.3 s; Bas (3 h): 0%; Eos (3 h): 0.6%; Fbg (3 h): 324 mg/dL; Hb (3 h): 13.5 g/dL; Ht (3 h): 39.5%; Lym (3 h): 80.6%; MCHC (3 h): 34%; MCV (3 h): 62.3 fL; Mono (3 h): 1.4%; Neu (3 h): 16.8%; PT (3 h): 16 s; Plat (3 h): 117.8 x10_4/uL; RBC (3 h): 634.6 x10_4/ul; Ret (3 h): 6.3%; WBC (3 h): 77.4 x10_2/uL; KIDNEY_L (3 h): 0.9 g; KIDNEY_R (3 h): 0.9 g; KIDNEY_TOTAL (3 h): 1.8 g; LIVER (3 h): 9.2 g; ALP (3 h): 1964.4 IU/L; ALT (3 h): 42.6 IU/L; AST (3 h): 70.8 IU/L; BUN (3 h): 14.8 mg/dL; CRE (3 h): 0.1 mg/dL; Ca (3 h): 10.9 mg/dL; Cl (3 h): 106.8 meq/L; DBIL (3 h): 0.002 mg/dL; GLC (3 h): 192.6 mg/dL; IP (3 h): 7.8 mg/dL; K (3 h): 4.2 meq/L; LDH (3 h): 147.6 IU/L; Na (3 h): 140.4 meq/L; PL (3 h): 144.4 mg/dL; RALB (3 h): 3.2 g/dL; TBIL (3 h): 0.014 mg/dL; TC (3 h): 79.8 mg/dL; TG (3 h): 63.4 mg/dL; TP (3 h): 5.7 g/dL; gamma-GTP (3 h): 0.8 IU/L; TERMINAL_BW (6 h): 210.1 g; APTT (6 h): 20.9 s; Bas (6 h): 0%; Eos (6 h): 0.4%; Fbg (6 h): 317.4 mg/dL; Hb (6 h): 13.2 g/dL; Ht (6 h): 39.3%; Lym (6 h): 79.8%; MCHC (6 h): 33.6%; MCV (6 h): 65.6 fL; Mono (6 h): 2.2%; Neu (6 h): 16.6%; PT (6 h): 15.7 s; Plat (6 h): 130.2 x10_4/uL; RBC (6 h): 599.8 x10_4/ul; Ret (6 h): 7.4%; WBC (6 h): 75.5 x10_2/uL; KIDNEY_L (6 h): 1 g; KIDNEY_R (6 h): 1 g; KIDNEY_TOTAL (6 h): 1.9 g; LIVER (6 h): 9.3 g; ALP (6 h): 1510 IU/L; ALT (6 h): 37.8 IU/L; AST (6 h): 67.8 IU/L; BUN (6 h): 11.4 mg/dL; CRE (6 h): 0.1 mg/dL; Ca (6 h): 10.8 mg/dL; Cl (6 h): 105.2 meq/L; DBIL (6 h): 0 mg/dL; GLC (6 h): 178.8 mg/dL; IP (6 h): 9.8 mg/dL; K (6 h): 4 meq/L; LDH (6 h): 239.2 IU/L; Na (6 h): 140.4 meq/L; PL (6 h): 147.8 mg/dL; RALB (6 h): 3 g/dL; TBIL (6 h): 0.018 mg/dL; TC (6 h): 81.2 mg/dL; TG (6 h): 77.4 mg/dL; TP (6 h): 5.6 g/dL; gamma-GTP (6 h): 1 IU/L; TERMINAL_BW (9 h): 206.4 g; APTT (9 h): 21.8 s; Bas (9 h): 0%; Eos (9 h): 0.6%; Fbg (9 h): 319 mg/dL; Hb (9 h): 13.2 g/dL; Ht (9 h): 39.2%; Lym (9 h): 75.8%; MCHC (9 h): 33.7%; MCV (9 h): 64.6 fL; Mono (9 h): 1.8%; Neu (9 h): 20.4%; PT (9 h): 15.6 s; Plat (9 h): 131 x10_4/uL; RBC (9 h): 606.6 x10_4/ul; Ret (9 h): 7.3%; WBC (9 h): 89.6 x10_2/uL; KIDNEY_L (9 h): 0.9 g; KIDNEY_R (9 h): 1 g; KIDNEY_TOTAL (9 h): 1.9 g; LIVER (9 h): 9.2 g; ALP (9 h): 1422.6 IU/L; ALT (9 h): 33.8 IU/L; AST (9 h): 62.2 IU/L; BUN (9 h): 11.4 mg/dL; CRE (9 h): 0.1 mg/dL; Ca (9 h): 10.9 mg/dL; Cl (9 h): 105.6 meq/L; DBIL (9 h): 0 mg/dL; GLC (9 h): 193.8 mg/dL; IP (9 h): 9.4 mg/dL; K (9 h): 3.9 meq/L; LDH (9 h): 196.4 IU/L; Na (9 h): 139.6 meq/L; PL (9 h): 135.6 mg/dL; RALB (9 h): 3 g/dL; TBIL (9 h): 0.012 mg/dL; TC (9 h): 76.4 mg/dL; TG (9 h): 70 mg/dL; TP (9 h): 5.6 g/dL; gamma-GTP (9 h): 0.8 IU/L; TERMINAL_BW (24 h): 228.6 g; APTT (24 h): 20.7 s; Bas (24 h): 0%; Eos (24 h): 0.8%; Fbg (24 h): 315.6 mg/dL; Hb (24 h): 13.1 g/dL; Ht (24 h): 39.4%; Lym (24 h): 74.8%; MCHC (24 h): 33.3%; MCV (24 h): 65.2 fL; Mono (24 h): 2.4%; Neu (24 h): 21.2%; PT (24 h): 16 s; Plat (24 h): 120.5 x10_4/uL; RBC (24 h): 604.2 x10_4/ul; Ret (24 h): 7.2%; WBC (24 h): 89.3 x10_2/uL; KIDNEY_L (24 h): 1 g; KIDNEY_R (24 h): 1 g; KIDNEY_TOTAL (24 h): 2.1 g; LIVER (24 h): 11.2 g; ALP (24 h): 1688.8 IU/L; ALT (24 h): 42.6 IU/L; AST (24 h): 66.4 IU/L; BUN (24 h): 16.8 mg/dL; CRE (24 h): 0.1 mg/dL; Ca (24 h): 11 mg/dL; Cl (24 h): 105.4 meq/L; DBIL (24 h): 0 mg/dL; GLC (24 h): 196.6 mg/dL; IP (24 h): 7.1 mg/dL; K (24 h): 4.3 meq/L; LDH (24 h): 177.6 IU/L; Na (24 h): 141.6 meq/L; PL (24 h): 154.2 mg/dL; RALB (24 h): 3.2 g/dL; TBIL (24 h): 0.014 mg/dL; TC (24 h): 76.8 mg/dL; TG (24 h): 149.4 mg/dL; TP (24 h): 5.7 g/dL; gamma-GTP (24 h): 1 IU/L
